According to patent US20040248821A1, “Composition for the treatment of lupus” (priority 2001, published 2004):
Entries after “also recorded” stand apart in the source; their conditions may differ.

Columns and labels:
[1] = tested on: osteoarthritis or Lupus caused joint inflammation; conditions: Bromelain alone; cited from earlier work
[2] = tested on: patients with Lupus (SLE); test: Treatment of human Lupus patients with the inventive composition (case reports); assay type: in vivo; conditions: flavonoid replacing Quercetin in the inventive formula; limited tests

| Molecule | Ameliorating joint pain [1] | Effectiveness of the flavonoid in the inventive formula (with Bromelain and Vitamin C) [2] |
| --- | --- | --- |
| Bromelain | not effective |  |
| O=c1c(O)c(-c2cc(O)c(O)c(O)c2)oc2cc(O)cc(O)c12 [Myricetin] |  | also effective; also recorded: somewhat effective |
| O=c1cc(-c2ccc(O)c(O)c2)oc2cc(O)cc(O)c12 [Luteolin] |  | also effective; also recorded: somewhat more effective than Quercetin |
